Assay results as given in patent US12281225B2, “Process for preparing stable polymers containing vinylimidazole” (BASF SE, priority 2018, dated 2025).

Experiment: Analysis of active substance: preservative concentration before and after storage in VI-containing polymer solution
Assay type: physicochemical
Conditions: for active-substance concentration, 0 d, RT: before storage; for active-substance concentration, 14 d, 40° C.: storage 14 d at 40° C.; for active-substance concentration, 28 d, 40° C.: storage 28 d at 40° C.; for active-substance concentration, 60 d 40° C.: storage 60 d at 40° C.
Method: Stability of Preservatives in VI-Containing Polymers:
The following stabilizers for VI-containing polymers (here: aqueous solution of a copolymer of vinylpyrrolidone and vinylimidazole) were tested.
MIT, BIT, CMIT, OIT, DCOIT and iodopropynyl butyl carbamate were determined by RP chromatography with UV detection after dilution of the sample to be tested. An RP18 column was used for this purpose, with an eluent composed of an acid-methanol mixture under isocratic conditions.

Molecule | active-substance concentration, 0 d, RT (in Polymer P1) | active-substance concentration, 14 d, 40° C. (in Polymer P1) | active-substance concentration, 28 d, 40° C. (in Polymer P1) | active-substance concentration, 60 d 40° C. (in Polymer P1) | active-substance concentration, 0 d, RT (in Polymer P2) | active-substance concentration, 14 d, 40° C. (in Polymer P2) | active-substance concentration, 28 d, 40° C. (in Polymer P2) | active-substance concentration, 60 d 40° C. (in Polymer P2) | active-substance concentration, 0 d, RT (in Polymer P3) | active-substance concentration, 14 d, 40° C. (in Polymer P3) | active-substance concentration, 28 d, 40° C. (in Polymer P3) | active-substance concentration, 60 d 40° C. (in Polymer P3) | active-substance concentration, 0 d, RT (in Polymer P4) | active-substance concentration, 14 d, 40° C. (in Polymer P4) | active-substance concentration, 28 d, 40° C. (in Polymer P4) | active-substance concentration, 60 d 40° C. (in Polymer P4) | active-substance concentration, 0 d, RT (in Polymer P5 (HP56)) | active-substance concentration, 14 d, 40° C. (in Polymer P5 (HP56)) | active-substance concentration, 28 d, 40° C. (in Polymer P5 (HP56)) | active-substance concentration, 60 d 40° C. (in Polymer P5 (HP56)) | also measured
CCCCCCCCn1sccc1=O [OIT, octylisothiazolinone] | 250 ppm | 142 ppm | 89 ppm | 72 ppm | 250 ppm | 170 ppm | 101 ppm | 84 ppm | 250 ppm | 163 ppm | 121 ppm | 96 ppm | 250 ppm | 165 ppm | 114 ppm | 90 ppm | 250 ppm | 142 ppm | 89 ppm | 72 ppm | active-substance concentration, 0 d, RT (in Polymer P6): 250 ppm; active-substance concentration, 14 d, 40° C. (in Polymer P6): 135 ppm; active-substance concentration, 28 d, 40° C. (in Polymer P6): 88 ppm; active-substance concentration, 60 d 40° C. (in Polymer P6): 68 ppm; active-substance concentration, 0 d, RT (in Polymer P7): 250 ppm; active-substance concentration, 14 d, 40° C. (in Polymer P7): 139 ppm; active-substance concentration, 28 d, 40° C. (in Polymer P7): 92 ppm; active-substance concentration, 60 d 40° C. (in Polymer P7): 73 ppm; active-substance concentration, 0 d, RT (in Polymer P8): 250 ppm; active-substance concentration, 14 d, 40° C. (in Polymer P8): 142 ppm; active-substance concentration, 28 d, 40° C. (in Polymer P8): 89 ppm; active-substance concentration, 60 d 40° C. (in Polymer P8): 72 ppm; active-substance concentration, 0 d, RT (in Polymer P9): 250 ppm; active-substance concentration, 14 d, 40° C. (in Polymer P9): 128 ppm; active-substance concentration, 28 d, 40° C. (in Polymer P9): 76 ppm; active-substance concentration, 60 d 40° C. (in Polymer P9): 62 ppm
CCCCCCCCCCCCCCCC[N+](C)(C)Cc1ccccc1.[Cl-] [Polymer 16-BAC, cetylalkonium chloride] | 1000 ppm | 960 ppm | 960 ppm | 940 ppm | 1000 ppm | 960 ppm | 960 ppm | 940 ppm | 1000 ppm | 975 ppm | 968 ppm | 952 ppm | 1000 ppm | 964 ppm | 960 ppm | 944 ppm | 1000 ppm | 960 ppm | 960 ppm | 940 ppm | active-substance concentration, 0 d, RT (in Polymer P6): 1000 ppm; active-substance concentration, 14 d, 40° C. (in Polymer P6): 970 ppm; active-substance concentration, 28 d, 40° C. (in Polymer P6): 961 ppm; active-substance concentration, 60 d 40° C. (in Polymer P6): 954 ppm; active-substance concentration, 0 d, RT (in Polymer P7): 1000 ppm; active-substance concentration, 14 d, 40° C. (in Polymer P7): 975 ppm; active-substance concentration, 28 d, 40° C. (in Polymer P7): 966 ppm; active-substance concentration, 60 d 40° C. (in Polymer P7): 953 ppm; active-substance concentration, 0 d, RT (in Polymer P8): 1000 ppm; active-substance concentration, 14 d, 40° C. (in Polymer P8): 960 ppm; active-substance concentration, 28 d, 40° C. (in Polymer P8): 960 ppm; active-substance concentration, 60 d 40° C. (in Polymer P8): 940 ppm; active-substance concentration, 0 d, RT (in Polymer P9): 1000 ppm; active-substance concentration, 14 d, 40° C. (in Polymer P9): 960 ppm; active-substance concentration, 28 d, 40° C. (in Polymer P9): 960 ppm; active-substance concentration, 60 d 40° C. (in Polymer P9): 940 ppm
benzalkonium chloride [BAC] | 1000 ppm | 990 ppm | 990 ppm | 970 ppm | 1000 ppm | 990 ppm | 990 ppm | 970 ppm | 1000 ppm | 970 ppm | 973 ppm | 967 ppm | 1000 ppm | 1000 ppm | 991 ppm | 977 ppm | 1000 ppm | 990 ppm | 90 ppm | 970 ppm | active-substance concentration, 0 d, RT (in Polymer P6): 1000 ppm; active-substance concentration, 14 d, 40° C. (in Polymer P6): 990 ppm; active-substance concentration, 28 d, 40° C. (in Polymer P6): 981 ppm; active-substance concentration, 60 d 40° C. (in Polymer P6): 976 ppm; active-substance concentration, 0 d, RT (in Polymer P7): 1000 ppm; active-substance concentration, 14 d, 40° C. (in Polymer P7): 988 ppm; active-substance concentration, 28 d, 40° C. (in Polymer P7): 985 ppm; active-substance concentration, 60 d 40° C. (in Polymer P7): 979 ppm; active-substance concentration, 0 d, RT (in Polymer P8): 1000 ppm; active-substance concentration, 14 d, 40° C. (in Polymer P8): 990 ppm; active-substance concentration, 28 d, 40° C. (in Polymer P8): 990 ppm; active-substance concentration, 60 d 40° C. (in Polymer P8): 970 ppm; active-substance concentration, 0 d, RT (in Polymer P9): 1000 ppm; active-substance concentration, 14 d, 40° C. (in Polymer P9): 990 ppm; active-substance concentration, 28 d, 40° C. (in Polymer P9): 985 ppm; active-substance concentration, 60 d 40° C. (in Polymer P9): 975 ppm
